Data published in patent US10377783B2, “Methods and compounds for enhancing contrast in magnetic resonance imaging (MRI)” (priority 2015, dated 2019).

Tested on: male rats (Sprague Dawley Crl:SD)
Assay: In vivo MRI imaging of 1, predominantly T1-weighted RARE fast-spin-echo scans
Design: species or system rat
Conditions: 0.02 mmol/kg iv; for MRI signal intensity, bladder: baseline (−10 min) 414.3; for MRI signal intensity, skeletal muscle: baseline (−10 min) 432.1; for MRI signal intensity, renal pelvis: baseline (−10 min) 465.7; for MRI signal intensity, renal medulla: baseline (−10 min) 480.8; for MRI signal intensity, liver: baseline (−10 min) 498.6; for MRI signal intensity, renal cortex: baseline (−10 min) 579.1
Procedure: Compound 1 (aq., 12.5 mM) was injected intravenously into 2 male rats (Sprague Dawley Crl:SD, 312-338 g) at a dosage of 0.02 mmol/kg following anaesthesia with 5% isoflurane. Compound 2 (aq., 6.25 mM) was injected intravenously into 1 male rat (Sprague Dawley Crl:SD, 349 g) at a dosage of 0.01 mmol/kg following anaesthesia with 5% isoflurane. Compound 6 (aq., 6.25 mM) was injected intravenously into 1 male rat (Sprague Dawley Crl:SD, 341 g) at a dosage of 0.01 mmol/kg following anaesthesia with 5% isoflurane. Anesthesia was maintained at 2-2.5% isoflurane through a nose cone for the duration of the scans. Fast-spin-echo images were collected for 45 mins. immediately post-injection. For compound 1, the DT1-weighted RARE (Rapid Acquisition Relaxation Enhancement) scans were acquired with an echo time of 10 ms, and a repetition time=respiratory cycle duration (˜1100 ms). Both T1- and T2-weighted scans were collected on compounds 2 and 6.
The in vivo contrast potential of compounds 1, 2 and 6 were studied via the collection of fast-spin-echo images for 30-45 minutes immediately following injection of an aqueous solution of each complex. The dosage chosen for 1 was 0.02 mmol/kg (c=[…]) while the dosage chosen for 2 and 6 was 0.01 mmol/kg (c=6.25 mM). Predominantly T1-weighted scans with some T2-weighting were performed on two rats injected with 1.

[1] = percentage of the initial intensity, first 45 min

CC1=NCCNCCNCCN=C(C)c2cccc1n2.O.O.[Cl-].[Cl-].[Mn+2] [Compound 1, [MnL1Cl2].2H2O]
excretion (summary): rapid excretion | time to appearance in the bladder: ≤ 5 min | MRI signal intensity, bladder (2 min after injection): 454.3 arbitrary units of voxel intensity | MRI signal intensity, skeletal muscle (2 min after injection): 358.5 arbitrary units of voxel intensity | MRI signal intensity, renal pelvis (2 min after injection): 881.1 arbitrary units of voxel intensity | MRI signal intensity, renal medulla (2 min after injection): 608.9 arbitrary units of voxel intensity | MRI signal intensity, liver (2 min after injection): 458.8 arbitrary units of voxel intensity | MRI signal intensity, renal cortex (2 min after injection): 635.2 arbitrary units of voxel intensity | MRI signal intensity, bladder (10 min after injection): 1093.1 arbitrary units of voxel intensity | MRI signal intensity, skeletal muscle (10 min after injection): 354.3 arbitrary units of voxel intensity | MRI signal intensity, renal pelvis (10 min after injection): 920.7 arbitrary units of voxel intensity | MRI signal intensity, renal medulla (10 min after injection): 561.8 arbitrary units of voxel intensity | MRI signal intensity, liver (10 min after injection): 436.2 arbitrary units of voxel intensity | MRI signal intensity, renal cortex (10 min after injection): 683.4 arbitrary units of voxel intensity | MRI signal intensity, bladder (15 min after injection): 1147.9 arbitrary units of voxel intensity | MRI signal intensity, skeletal muscle (15 min after injection): 346.5 arbitrary units of voxel intensity | MRI signal intensity, renal pelvis (15 min after injection): 806.3 arbitrary units of voxel intensity | MRI signal intensity, renal medulla (15 min after injection): 524.4 arbitrary units of voxel intensity | MRI signal intensity, liver (15 min after injection): 410.2 arbitrary units of voxel intensity | MRI signal intensity, renal cortex (15 min after injection): 660.3 arbitrary units of voxel intensity | MRI signal intensity, bladder (20 min after injection): 1046.4 arbitrary units of voxel intensity | MRI signal intensity, skeletal muscle (20 min after injection): 337.5 arbitrary units of voxel intensity | MRI signal intensity, renal pelvis (20 min after injection): 733.9 arbitrary units of voxel intensity | MRI signal intensity, renal medulla (20 min after injection): 502.9 arbitrary units of voxel intensity | MRI signal intensity, liver (20 min after injection): 424.5 arbitrary units of voxel intensity | MRI signal intensity, renal cortex (20 min after injection): 717.0 arbitrary units of voxel intensity | MRI signal intensity, bladder (30 min after injection): 970.1 arbitrary units of voxel intensity | MRI signal intensity, skeletal muscle (30 min after injection): 330.6 arbitrary units of voxel intensity | MRI signal intensity, renal pelvis (30 min after injection): 704.7 arbitrary units of voxel intensity | MRI signal intensity, renal medulla (30 min after injection): 512.6 arbitrary units of voxel intensity | MRI signal intensity, liver (30 min after injection): 398.0 arbitrary units of voxel intensity | MRI signal intensity, renal cortex (30 min after injection): 775.4 arbitrary units of voxel intensity | MRI signal intensity, bladder (45 min after injection): 1030.1 arbitrary units of voxel intensity | MRI signal intensity, skeletal muscle (45 min after injection): 351.0 arbitrary units of voxel intensity | MRI signal intensity, renal pelvis (45 min after injection): 666.1 arbitrary units of voxel intensity | MRI signal intensity, renal medulla (45 min after injection): 520.6 arbitrary units of voxel intensity | MRI signal intensity, liver (45 min after injection): 369.8 arbitrary units of voxel intensity | MRI signal intensity, renal cortex (45 min after injection): 804.1 arbitrary units of voxel intensity | liver signal (first 45 minutes): gradual liver hypoenhancement | renal cortical signal (first 45 minutes): slow increase in the renal cortical signal | Max. intensity change, bladder [1]: 177% | Max. intensity change, liver [1]: −26% | Max. intensity change, renal cortex [1]: 39% | Max. intensity change, renal medulla [1]: 27% | Max. intensity change, renal pelvis [1]: 98% | Max. intensity change, skeletal muscle [1]: −23% | retention in tissues or organs (scans 3 hours post-injection): no evidence of compound 1 being retained by any tissue or organ
